# Data: patent US10919841B2, “Monoamine reuptake inhibitors” (Research Triangle Institute, priority 2009, dated 2021)
# Like-named read-outs stand apart in the source and are kept apart here.
# Key:
# [1] = system: mice; assay: locomotor activity, 8-h time course protocol; type: in vivo; details: for ED50 / Emax: Mus musculus; for ED50: read-out: Locomotor Activity 8-Hour ED50; for Emax: read-out: Locomotor Activity 8-Hour % Peak Cocaine, percent of cocaine's maximal effect, 30 min period of maximum stimulation; for Locomotor Activity 8-Hour Time, min Period, length: duration of locomotor activity; for Locomotor Activity 8-Hour Time, min Period, max: time period of maximum effect; for locomotor stimulant activity across the 1-h and 8-h protocols, in words: 1-h and 8-h tests compared
# [2] = system: rats; assay: cocaine discrimination (2-lever operant), i.p. administration; details: for responders at 5 mg/kg / responders at 10 mg/kg / responders at 25 mg/kg / ED50 / responders at 50 mg/kg: Rattus norvegicus, ip; for responders at 5 mg/kg / responders at 10 mg/kg / responders at 25 mg/kg / responders at 50 mg/kg: read-out: % cocaine lever responding
# [3] = target: T1, (h)DAT (Homo sapiens, UniProt Q01959); assay: block of [3H]dopamine reuptake in HEK-(h)DAT cells; type: cell-based
# T1 construct: expressed in transfected cells
# [4] = system: rats; assay: cocaine discrimination time-course study, oral administration; details: for ED50: Rattus norvegicus, po, 0.75 h; for generalization to cocaine: p.o., 50 mg/kg
# [5] = target: T1, (h)DAT; assay: competition binding with [125I]RTI-55 at (h)DAT stably expressed in HEK293 cells; details: mean ± standard error of three independent experiments
# [6] = target: T2, (h)NET (Homo sapiens, UniProt P23975); assay: competition binding with [125I]RTI-55 at (h)NET stably expressed in HEK293 cells; details: read-out: Binding, Ki NET; mean ± standard error of three independent experiments
# [7] = system: mice; assay: locomotor activity, 1-h observation protocol; type: in vivo; details: Mus musculus; for Emax: 0.5 h, read-out: Locomotor Activity 1-Hour % Peak Cocaine; for ED50: dose to produce 50% of the compound's maximal effect, 1-h
# [8] = target: T2, (h)NET; assay: block of [3H]norepinephrine reuptake in HEK-(h)NET cells; details: read-out: Uptake, IC50 [3H]NE; mean ± standard error of three independent experiments
# [9] = dose to produce 50% of the compound's maximal effect, 8-h
# [10] = read-out: Full Generalization ED50
# [11] = mean ± standard error of three independent experiments, read-out: Uptake, IC50 [3H]DA
# [12] = [3H]DA, read-out: IC50 for DA uptake inhibition
# T1 sequence (Q01959 whole entry): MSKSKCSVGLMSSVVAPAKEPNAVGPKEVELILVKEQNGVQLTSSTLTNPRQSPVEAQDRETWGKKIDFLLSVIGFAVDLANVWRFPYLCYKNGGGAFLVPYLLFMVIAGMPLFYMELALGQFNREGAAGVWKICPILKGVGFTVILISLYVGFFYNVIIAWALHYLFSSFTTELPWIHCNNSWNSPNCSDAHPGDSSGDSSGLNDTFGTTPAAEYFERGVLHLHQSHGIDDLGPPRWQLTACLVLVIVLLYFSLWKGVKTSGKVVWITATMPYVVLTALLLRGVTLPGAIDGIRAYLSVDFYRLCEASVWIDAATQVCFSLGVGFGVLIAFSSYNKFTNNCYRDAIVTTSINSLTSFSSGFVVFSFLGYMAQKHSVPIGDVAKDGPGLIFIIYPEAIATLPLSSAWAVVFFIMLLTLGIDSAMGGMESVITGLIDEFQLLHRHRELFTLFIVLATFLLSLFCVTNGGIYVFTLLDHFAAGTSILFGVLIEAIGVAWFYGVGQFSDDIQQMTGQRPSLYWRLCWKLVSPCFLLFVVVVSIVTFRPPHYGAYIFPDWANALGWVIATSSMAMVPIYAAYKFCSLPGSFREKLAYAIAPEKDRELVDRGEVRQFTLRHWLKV
# T2 sequence (P23975 whole entry): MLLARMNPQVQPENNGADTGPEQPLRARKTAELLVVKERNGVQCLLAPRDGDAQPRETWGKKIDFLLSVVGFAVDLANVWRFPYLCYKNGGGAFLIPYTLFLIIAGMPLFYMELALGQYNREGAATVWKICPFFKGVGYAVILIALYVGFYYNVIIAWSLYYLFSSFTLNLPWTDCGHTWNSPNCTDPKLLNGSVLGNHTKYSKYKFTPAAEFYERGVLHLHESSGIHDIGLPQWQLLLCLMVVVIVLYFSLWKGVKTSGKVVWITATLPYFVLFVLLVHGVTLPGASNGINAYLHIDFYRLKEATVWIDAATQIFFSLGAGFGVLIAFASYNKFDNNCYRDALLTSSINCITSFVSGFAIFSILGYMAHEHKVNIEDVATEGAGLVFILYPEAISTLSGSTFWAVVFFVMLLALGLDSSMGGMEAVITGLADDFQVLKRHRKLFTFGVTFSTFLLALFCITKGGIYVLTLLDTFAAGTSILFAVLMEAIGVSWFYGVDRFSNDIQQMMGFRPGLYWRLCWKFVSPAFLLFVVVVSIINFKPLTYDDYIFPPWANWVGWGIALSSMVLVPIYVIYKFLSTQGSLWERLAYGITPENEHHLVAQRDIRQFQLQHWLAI
Compound,Emax [1] [%],"Locomotor Activity 8-Hour Time, min Period, length [1] [min]","Locomotor Activity 8-Hour Time, min Period, max [1] [min]",responders at 5 mg/kg [2] [%],responders at 10 mg/kg [2] [%],responders at 25 mg/kg [2] [%],ED50 [4] [mg/kg],Ki [5] [µM],Ki [6] [µM],"locomotor stimulant activity across the 1-h and 8-h protocols, in words [1]","ED50 [1, 9] [mg/kg]","ED50 [2, 10] [mg/kg]","IC50 [3, 11] [nM]",Emax [7] [%],ED50 [7] [mg/kg],IC50 [8] [µM],also measured
"CC(NC(C)(C)C)C(=O)c1cccc(Cl)c1 (racemic) [Compound 2a, (±)-2-tert-butylamino-3′-chloropropiophenone, reference compound]",> 84,130 to 270,0 to 30,0,67,66,23.2,–,–,–,–,–,–,–,–,–,"ED50 ([1]; 8 h): 6.5 mg/kg; generalization to the cocaine cue, in words ([2]; i.p.): substituted only partially; cocaine-appropriate responding ([2]; i.p., 10 mg/kg): 67%; response rate, in words ([2]; i.p., dose range given in the value): increased relative to vehicle control following 5-25 mg/kg; times less potent inhibitor of DA uptake than cocaine ([3]; relative to cocaine): 3.5 times; ED50 ([4]; read-out: ED50 for drug-appropriate responding): 23.2 mg/kg; generalization to cocaine ([4]; 45 min): full generalization; generalization to cocaine ([4]; 90 min): partial generalization"
"CC(NC(C)(C)C)C(=O)c1ccccc1 (centres unmarked) [Compound 2b, 2-(N-tert-Butylamino)propiophenone]",98,–,0 to 30,3,83,83,25.6,5.73,5.7,strong stimulants in both studies,10.5,5.65,2310,120,8.1,8.7,–
"CC(NC(C)(C)C)C(=O)c1cccc(F)c1 (centres unmarked) [Compound 2c, 2-(tert-Butylamino)-3′-fluoropropiophenone]",90,150,0 to 30,1,0,50,27.1,4.51,–,strong stimulants in both studies,16.6,10.8,1460,84,16.1,–,responders at 50 mg/kg [2]: 10%
"CC(C(=O)c1cccc(Cl)c1)N(C)C(C)(C)C (centres unmarked) [Compound 2cc, 2-(N-Methyl-N-tert-butylamino)-3′-chloropropiophenone]",67,200 to 340,80 to 110,0,49,50,–,6.4,–,weak stimulants in both tests,11.2,–,2060,78,14.9,–,–
"CC(NC(C)(C)C)C(=O)c1cccc(Br)c1 (centres unmarked) [Compound 2d, 2-(N-tert-Butylamino)-3′-bromopropiophenone]",57,120,0 to 30,1,27,83,52.4,4.2,–,weak stimulants in both tests,12.9,11.4,–,72,10.6,6.5,"IC50 [3, 12]: 950 nM"
"CC(C(=O)c1cccc(Cl)c1)N(C)C (centres unmarked) [Compound 2dd, 2-(N,N-Dimethylamino)-3′-chloropropiophenone]",52,180 to 190,90 to 120,0,83,83,5.36,4.13,3.09,activity similar to cocaine in the 1-h protocol but weakened significantly in the 8-h time-course study,13.9,4.84,–,100,11,1.26,"responders at 50 mg/kg [2]: 10%; ED50 ([2]; read-out: ED50 for cocaine generalization): 4.84 mg/kg; IC50 [3, 12]: 1530 nM"
"Cc1cccc(C(=O)C(C)NC(C)(C)C)c1 (centres unmarked) [Compound 2e, 2-(N-tert-Butylamino)-3′-methylpropiophenone]",–,–,–,–,–,–,–,–,–,–,–,–,–,76,31,–,–
"CCN(CC)C(C)C(=O)c1cccc(Cl)c1 (centres unmarked) [Compound 2ee, 2-(N,N-Diethylamino)-3′-chloropropiophenone]",90,130 to 240,20 to 50,1,66,82,–,2.21,4.48,moderate activity in the 1-h test with increased activity in the time-course study,20,5.88,1740,55,16.6,4.6,–
